Results as given in patent US6818646B2 (priority 2000, dated 2004).
Structures can show the parent of a compound that is named as a salt.

Legend:
Format in all cases: biochemical
PDEV [1] = biological target: PDEV (Oryctolagus cuniculus, UniProt G1SX67); experiment: PDE assay: inhibition of PDEV isolated from rabbit tissue; details: PDEV inhibitory activity, rabbit tissue (footnote a)
Procedure: (§1) Briefly, rabbit or human tissues were homogenized in an ice-cold buffer solution containing 20 mM HEPES (pH 7.2), 0.25M sucrose, 1 mM EDTA, and 1 mM phenylmethylsulphonyl fluoride (PMSF). The homogenates were centrifuged at 100,000 g for 60 minutes at 4° C. The supernatant was filtered through […] filter and loaded on a Pharmacia Mono Q anion exchange column (1 ml bed volume) that was equilibrated with 20 mM HEPES, 1 mM EDTA and 0.5 mM PMSF. After washing out unbound proteins, the enzymes were eluted with a linear gradient of 100-600 mM NaCl in the same buffer (35 to 50 ml total, depending on the tissue. Enzymes from the skeletal muscle, corpus cavernosum, retina, heart and platelet were eluted with 35, 40, 45, 50, and 50 ml respectively.) The column was run at a flow rate of 1 ml/min and 1 ml fractions were collected. The fractions comprising various PDE activities were pooled separately and used in later studies.
(§2) The assays were adapted to a 96-well format. The enzyme was assayed in 5 mM MgCl2, 15 mM Tris HCl (pH 7.4), 0.5 mg/ml bovine serum albumin, 1 μM cGMP or cAMP, 0.1 μCi [^3H]-cGMP or [^3H]-cAMP, and 2-10 μl of column elution. The total volume of the assay was 100 μl. The reaction mixture was incubated at 30° C. for 30 minutes. The reaction was stopped by boiling for 1 minute and then cooled down on ice. The resulting [^3H]5′-mononucleotides were further converted to uncharged [^3H]-nucleosides by adding 25 μl 1 mg/ml snake venom (Ophiophagus hannah) and incubating at 30° C. for 10 minute. The reaction was stopped by the addition of 1 ml Bio-Rad AG1-X2 resin slurry (1:3). All the charged nucleotides were bound by the resin and only uncharged [^3H]-nucleosides remained in the supernatant after centrifuging. An aliquot of 200 μl was taken and counted by liquid scintillation. PDE activity was expressed as pmol cyclic nucleotide hydrolyzed/min/ml of enzyme preparation.
(§3) Inhibitor studies were carried out in assay buffer with a final concentration of 10% DMSO.
(§4) The % inhibition of the maximum substrate conversion (by the enzyme in the absence of inhibitor) was calculated for each test compound concentration. Using GraphPad Prism's nonlinear regression analysis (sigmoidal dose response), the % inhibition vs log of the test compound concentration was plotted to determine the IC50. Under conditions where substrate concentration <<Km of the enzyme (Km=substrate concentration at which half of the maximal velocity of the enzyme is achieved), Ki is equivalent to the IC50 value.
(§5) Unless otherwise noted, PDEV inhibitory activities were measured using human tissue. The abbreviation “stereo” refers to the stereogenic configuration, the abbreviation “Rac” shall denote a racemic mixture.

PDEV [2] = biological target: T1, PDEV (Homo sapiens, UniProt O76074); experiment: In vitro determination of Ki for phosphodiesterase inhibitors; details: human tissue; given as 'Ki ='
T1 construct: PDEV was isolated from rabbit and human tissues according to the protocol described by Boolell et al; from tissue; host or cells: human tissue, homogenate supernatant fractionated on Mono Q
Procedure: The assays were adapted to a 96-well format. Phosphodiesterase was assayed in 5 mM MgCl2, 15 mM Tris HCl (pH 7.4), 0.5 mg/ml bovine serum albumin, 30 nM ^3H-cGMP and test compound at various concentrations. The amount of enzyme used for each reaction was such that less than 15% of the initial substrate was converted during the assay period. For all measurements, the test compound was dissolved and diluted in 100% DMSO (2% DMSO in assay). The total volume of the assay was 100 μl. The reaction mixture was incubated at 30° C. for 90 minutes. The reaction was stopped by boiling for 1 minute and then immediately cooled by transfer to an ice bath. To each well was then added 25 μl 1 mg/ml snake venom (Ophiophagus hannah) and the reaction mixture incubating at 30° C. for 10 minute. The reaction was stopped by the addition of 1 ml Bio-Rad AG1-X2 resin slurry (1:3). An aliquot of 200 μl was taken and counted by liquid scintillation.
as §4, §5

PDEV [3] = biological target: T1, PDEV; experiment: PDE assay: inhibition of PDEV isolated from human tissue; details: PDEV inhibitory activity
Procedure: as §1, §2, §3, §4, §5

CC(C)(C)OC(=O)N1Cc2c([nH]c3ccccc3c2=O)C1c1ccc2c(c1)OCO2 (racemic) [Compound 3, 1,2,3,4-Tetrahydro-2-(tert-butoxycarbonyl)-3-(3,4-methylenedioxyphenyl)-9H-pyrrolo-[3,4-b]quinolin-9-one]
IC50 (PDEV [1]): 340 nM

O=C(OCc1ccccc1)N1Cc2c(nc3ccccc3c2O)C1c1ccc2c(c1)OCO2 (racemic) [Compound 27, 1,2,3,4-Tetrahydro-2-(benzyloxycarbonyl)-3-(3,4-methylenedioxyphenyl)-9H-pyrrolo-[3,4-b]quinolin-9-one]
IC50 (PDEV [1]): 3.4 nM

O=C(c1ccc(Br)o1)N1Cc2c(nc3ccccc3c2O)C1c1ccc2c(c1)OCO2 (racemic) [Compound 30, 1,2,3,4-Tetrahydro-3-(3,4-methylenedioxyphenyl)-2-(5-(2-bromo)-furoyl)-9H-pyrrolo[3,4-b]quinolin-9-one]
IC50 (PDEV [1]): 5.2 nM

O=C(c1cc2ccc(OCCN3CCOCC3)cc2o1)N1Cc2c([nH]c3ccccc3c2=O)C1c1ccc2c(c1)OCO2 (racemic) [Compound 49, hydrochloride salt]
IC50 (PDEV [1]): 1.13 nM

O=C(OCc1ccncc1)N1Cc2c([nH]c3ccccc3c2=O)C1c1ccc2c(c1)CCO2 (racemic) [Compound 53, 1,2,3,4-Tetrahydro-2-[(4-pyridinyl)methyloxycarbonyl]-3-(2,3-dihydrobenzofuran-5-yl)-9H-pyrrolo-[3,4-b]quinolin-9-one]
IC50 (PDEV [1]): 5.34 nM

COC(=O)c1ccc(/C=C/C(=O)N2Cc3c(n(C)c4ccccc4c3=O)C2c2ccc3c(c2)OCO3)cc1 (racemic) [Compound 63, (E)-4-[3-Oxo-3-[1,2,3,4-tetrahydro-3-(3,4-methylenedioxyphenyl)-4-methyl-9H-pyrrolo-[3,4-b]quinolin-9-one-2-yl]-1-propenyl]benzoic acid, methyl ester]
IC50 (PDEV [1]): 511 nM

Oc1c2c(nc3ccccc13)C(c1ccc3occc3c1)N(c1ncc(-c3ccccn3)cn1)C2 (racemic) [Compound 126, 3-Benzofuran-5-yl-2-(5-pyridin-2-yl-pyrimidin-2-yl)-1,2,3,4-tetrahydro-pyrrolo[3,4-b]quinolin-9-one]
Ki (PDEV [2]): 0.138 nM

Cc1ncc(-c2cnc(N3Cc4c(nc5ccccc5c4O)C3c3ccc4c(c3)CCO4)nc2)n1Cc1ccccc1 (racemic) [Compound 127, 2-[5-(3-Benzyl-2-methyl-3H-imidazol-4-yl)-pyrimidin-2-yl]-3-(2,3-dihydro-benzofuran-5-yl)-1,2,3,4-tetrahydro-pyrrolo[3,4-b]quinolin-9-one]
Ki (PDEV [2]): 0.14 nM

O=c1c2c([nH]c3ccccc13)C(c1ccc3c(c1)CCO3)N(c1ccccn1)C2 (racemic) [Compound 129, 3-(2,3-Dihydro-benzofuran-5-yl)-2-pyridin-2-yl-1,2,3,4-tetrahydro-pyrrolo[3,4-b]quinolin-9-one]
Ki (PDEV [2]): 0.65 nM

Oc1c2c(nc3ccccc13)C(c1ccc3c(c1)OCO3)N(c1ccc(-n3ccnc3)cc1)C2 (racemic) [Compound 133, 3-Benzo[1,3]dioxol-5-yl-2-(4-imidazol-1-yl-phenyl)-1,2,3,4-tetrahydro-pyrrolo[3,4-b]quinolin-9-one]
Ki (PDEV [2]): 1.75 nM

Oc1c2c(nc3ccccc13)C(c1ccc3c(c1)CCO3)N(c1ccc(-c3ccccn3)cn1)C2 (racemic) [Compound 134, 2-[2,3′]Bipyridinyl-6′-yl-3-(2,3-dihydro-benzofuran-5-yl)-1,2,3,4-tetrahydro-pyrrolo[3,4-b]quinolin-9-one]
Ki (PDEV [2]): 1.1 nM

O=Cc1ccc(-c2ccc(C(=O)N3Cc4c([nH]c5ccccc5c4=O)C3c3ccc4c(c3)OCO4)o2)cc1 (stereo not drawn) [Compound 23, 1,2,3,4-Tetrahydro-3-(3,4-methylenedioxyphenyl)-2-[5-(4-formylphenyl)-furoyl]-9H-pyrrolo[3,4-b]-quinolin-9-one]
IC50 (PDEV [3]): 1.76 nM

COC(=O)c1ccc(-c2ccc(C(=O)N3Cc4c([nH]c5ccccc5c4=O)C3c3ccc4c(c3)OCO4)o2)cc1 (stereo not drawn) [Compound 24, 1,2,3,4-Tetrahydro-3-(3,4-methylenedioxyphenyl)-2-[5-(4-methoxycarbonylphenyl)-furoyl]-9H-pyrrolo[3.4-b]-quinolin-9-one]
IC50 (PDEV [3]): 1.21 nM

COc1ccc(-c2cnc(N3Cc4c([nH]c5ccccc5c4=O)[C@@H]3c3ccc4c(c3)OCO4)nc2)cc1OC [Compound 35, (S)-1,2,3,4-Tetrahydro-2-[5-(3,4-dimethoxyphenyl)-pyrimidin-2-yl]-3-(3,4-methylenedioxyphenyl)-9H-pyrrolo-[3,4-b]quinolin-9-one]
IC50 (PDEV [1]): 1.42 nM

COc1ccc(-c2cnc(N3Cc4c([nH]c5ccccc5c4=O)C3c3ccc4c(c3)CCO4)nc2)cc1 (stereo not drawn) [Compound 39, 1,2,3,4-Tetrahydro-2-[5-(4-methoxyphenyl)-pyrimidin-2-yl]-3-(2,3-dihydrobenzofuranyl)-9H-pyrrolo-[3,4-b]quinolin-9-one]
IC50 (PDEV [3]): 0.47 nM

CN1CCN(C(=O)c2ccc(-c3ccc(C(=O)N4Cc5c([nH]c6ccccc6c5=O)C4c4ccc5c(c4)OCO5)o3)cc2)CC1 (stereo not drawn) [Compound 44, 1,2,3,4-Tetrahydro-3-(3,4-methylenedioxyphenyl)-2-(5-(4-(1-(4-methyl)piperazinylcarbonyl)-phenyl)-furoyl)-9H-pyrrolo[3,4-b]quinolin-9-one]
IC50 (PDEV [3]): 1.58 nM

O=c1c2c([nH]c3ccccc13)[C@@H](c1ccc3c(c1)OCO3)N(c1ccc(-c3cccc(C(F)(F)F)c3)o1)C2 [Compound 50, (R)-1,2,3,4-Tetrahydro-3-(3,4-methylenedioxyphenyl)-2-[5-(3-trifluoromethylphenyl)furo-2-yl]-9H-pyrrolo-[3,4-b]quinolin-9-one]
IC50 (PDEV [1]): 0.61 nM

O=c1c2c([nH]c3ccccc13)C(c1ccc3c(c1)CCO3)N(c1ncc(-c3ccccn3)cn1)C2 (stereo not drawn) [Compound 61]
IC50 (PDEV [3]): 1.03 nM

CN1CCN(C(=O)c2ccc(-c3ccc(C(=O)N4Cc5c([nH]c6ccccc6c5=O)[C@H]4c4ccc5c(c4)OCO5)o3)cc2)CC1 [Compound 69, (R)-1,2,3,4-Tetrahydro-3-(3,4-methylenedioxyphenyl)-2-(5-(4-(1-(4-methyl)-piperazinylcarbonyl)-phenyl)-furoyl)-9H-pyrrolo[3,4-b]quinolin-9-one]
IC50 (PDEV [3]): 0.32 nM

Oc1c2c(nc3ccccc13)[C@@H](c1ccc3c(c1)CCO3)N(c1ncc(-c3ccccn3)cn1)C2 [Compound 76]
IC50 (PDEV [3]): 0.23 nM

O=c1c2c([nH]c3ccccc13)[C@@H](c1ccc3c(c1)CCO3)N(Cc1ccccc1)C2 [Compound 77, (R)-1,2,3,4-Tetrahydro-2-benzyl-3-(2,3-dihydrobenzofuran-5-yl)-9H-pyrrolo-[3,4-b]quinolin-9-one]
IC50 (PDEV [3]): 62.7 nM

O=c1c2c([nH]c3ccccc13)C(c1ccc3c(c1)CCO3)N(c1ncc(-c3cccc[n+]3[O-])cn1)C2 (stereo not drawn) [Compound 125, 3-(2,3-Dihydro-benzofuran-5-yl)-2-[5-(1-oxy-pyridin-2-yl)-pyrimidin-2-yl]-1,2,3,4-tetrahydro-pyrrolo[3,4-b]quinolin-9-one]
Ki (PDEV [2]): 0.144 nM

Cc1ncc(-c2cnc(N3Cc4c([nH]c5ccccc5c4=O)C3c3ccc4c(c3)CCO4)nc2)n1C (stereo not drawn) [Compound 128, 3-(2,3-Dihydro-benzofuran-5-yl)-2-[5-(2,3-dimethyl-3H-imidazol-4-yl)-pyrimidin-2-yl]-1,2,3,4-tetrahydro-pyrrolo[3,4-β]quinolin-9-one]
Ki (PDEV [2]): 0.3 nM

(E)-4-[3-Oxo-3-[1,2,3,4-tetrahydro-3-(3,4-methylenedioxyphenyl)-9-methoxy-9H-pyrrolo-[3,4-b]quinolin-2-yl]-1-propenyl]benzoic acid, methyl ester [Compound 64]
IC50 (PDEV [1]): 113 nM
